Our source for the IC50 and EC50 values is patent US10961234B2, “Oxazole derivatives for use in the treatment of cancer” (LIFEARC, priority 2016, dated 2021).

The structures appear in SMILES notation.

One assay concerns the target T1, WT full length PAICS (Homo sapiens, UniProt P22234).
T1 construct: 5 μl WT full length PAICS (final assay concentration, fac, 2.5 nM) in basic buffer
T1 sequence (P22234 1-425): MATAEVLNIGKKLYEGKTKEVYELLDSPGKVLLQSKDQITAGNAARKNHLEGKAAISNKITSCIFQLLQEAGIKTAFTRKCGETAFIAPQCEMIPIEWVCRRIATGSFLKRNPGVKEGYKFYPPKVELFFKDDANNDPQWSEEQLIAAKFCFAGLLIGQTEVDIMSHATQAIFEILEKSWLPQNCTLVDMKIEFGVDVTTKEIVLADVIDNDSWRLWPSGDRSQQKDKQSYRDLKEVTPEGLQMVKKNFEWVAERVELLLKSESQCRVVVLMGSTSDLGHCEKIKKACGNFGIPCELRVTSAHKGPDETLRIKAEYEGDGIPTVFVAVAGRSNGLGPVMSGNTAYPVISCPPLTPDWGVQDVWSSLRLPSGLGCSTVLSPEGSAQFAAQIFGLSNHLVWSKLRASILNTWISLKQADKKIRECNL
Kind of assay: Biochemical assay to measure PAICS activity (Transcreener ADP2 FI, SAICAR synthetase reaction). The settings on record: PAICS 2.5 nM, 30 mins pre-incubation, ADP detection by fluorescence intensity. An excerpt:
The biochemical assay was used to measure PAICS SAICAR synthetase-mediated conversion of CAIR, aspartic acid and ATP to SAICAR, ADP and inorganic phosphate (PI), post-AIR/CAIR equilibration (see FIG. 3). This was achieved by detecting the ADP generated during the reaction, using Bellbrook Lab's Transcreener ADP^2 FI assay. An increase in the fluorescence intensity is directly proportional to the amount of PAICS activity.
The Transcreener ADP^2 FI assay is a homogeneous competitive displacement fluorescence intensity assay which uses direct immunodetection of ADP. Displacement of the tracer by ADP causes an increase in the fluorescence at excitation 590 nm and emission 617 nm (FIG. 3).
5 μl WT full length PAICS (final assay concentration, fac, 2.5 nM) in basic buffer, added to black, non-binding, 384-well plates (Corning #3575), columns 1 to 22.5 μl basic buffer was added to columns 23+24 (negative control). PAICS stock at 31.9 μM from the PI's lab (Steve Firestine). Basic buffer contained 50 mM Tris-HCl pH8 and 0.5 mM EDTA, fac.
1 μl compound in 100% DMSO added per well, or 1 μl 100% DMSO to positive controls (columns 1+2) and negative controls (columns 23+24). Final assay top concentration of compound either 1 mM or 30 μM, serially diluted with half-log dilutions across the plate in duplicate (one 10-point concentration response curve across wells 3 to 12, another across 13 to 22). Compounds pre-incubated with PAICS enzyme for 30 mins at RT.
2 μl CAIR added (fac 10 μM) in basic buffer plus 25 mM MgCl2 and 50 mM KHCO3 fac to all wells. CAIR stock 50 mM from Steve Firestine's lab. 1 hr RT incubation for AIR-CAIR equilibration. NB: ˜50% CAIR is decarboxylated during equilibration therefore 5 μM remains for the synthetase reaction.
2 μl ATP/aspartic acid added (fac 30 μM/180 μM) in reaction buffer to all wells. 30 mins RT incubation for appropriate level of ATP turnover. Reaction buffer contained basic buffer plus 10 mM DTT, 0.01% BSA and 0.01% Brij 35, fac.
10 μl ADP detection reagent added to all wells (as per instructions, Transcreener ADP^2 FI kit, BellBrook Labs #3013-10K). Incubation for 1 h at RT to allow antibody equilibration. Fluorescence intensity determined using a Tecan Safire2 (excitation at 590 nm, emission at 617 nm).

Assay [1] relates to LM2 and MDA-MB-231 breast cancer cell lines. Nature of the assay: PAICS 2D cell proliferation assay. The format is cell-based. The settings on record: Homo sapiens; 72 hours incubation; cell line (LM2 or MDA-MB-231) not given. On the procedure: Frozen cryovial stocks of LM2 and MDA-MB-231 breast cancer cell lines were thawed and cultured in 4.5 g/L glucose DMEM (31966-047, Invitrogen) supplemented with 10% Fetal Bovine Serum (10500-064, Invitrogen) until confluent in a T175 flask. Cells were incubated at 37° C. with 5% CO2 in a humidified incubator.
Cells were collected from T175 flasks by washing with PBS (10010-056, Invitrogen) and dissociated using Accutase (A6964, Sigma Aldrich). This was followed by centrifuging (1200 rpm, 5 min) and resuspending the cells in 10 ml of media containing 1% penicillin/streptomycin (15140-122, Invitrogen). Cells were counted by trypan blue exclusion method using an automated cell counter (Cellometer) and diluted to a concentration of 40,000/ml. 1000 cells were then seeded into 384-well white-walled plates (Corning, 3707) in a volume of 25 μl. Plates were incubated overnight at 37° C. with 5% CO2.
After 24 hours, PAICS compounds were added onto the assay plates using an HP D300 Digital Dispenser (Hewlett Packard). 10 mM stocks were used and dispensed as a 10 point concentration response curve (CRC) ½ log dilution series with a final top concentration of 100 μM. Controls were added onto each plate: positive controls included Staurosporine CRC (100 μM stock dispensed as a 10 point CRC ½ log dilution series with a final top concentration of 1 μM) and PAICS compound MRT00211919 (10 mM stock dispensed as a 10 point CRC ½ log dilution series with a final top concentration of 100 μM); a high control of Staurosporine (0.1 μM (LM2), 0.316 μM (MDA-MB-231) FAC) and a low control of media containing 1% DMSO. A final concentration of 1% DMSO was then added across the plates for normalisation. Following compound addition, assay plates were incubated for 72 hours at 37° C. with 5% CO2.
After 72 h incubation, dead and viable cells were measured in each assay plate. Cytotoxicity was assessed through fluorescent DNA staining using the CellTox™ Green Cytotoxicity Assay kit (G8743, Promega) following the manufacturer's multiplexing protocol. Impaired cell membrane integrity results in the access of dye to stain DNA allowing quantification of dead cells. Cell viability was determined following ATP quantification using the CellTiter-Glo® Luminescent Cell Viability Assay kit (G7572, Promega) following the manufacturer's protocol. ATP released from lysed cells allowed for the generation of a signal proportional to the number of cells present in the well. All endpoint reads were performed using the PheraSTAR Plus (BMG Labtech). Data is expressed as % viable cells and % dead cells against controls (mean±SEM of duplicate curves).

For `CC(C)NCCCOc1ccc(-c2ccc(Cl)c(NC(=O)c3coc(N)n3)c2)cn1` [Example 71, 2-Amino-N-(2-chloro-5-(6-(3-(isopropylamino)propoxy)pyridin-3-yl)phenyl)oxazole-4-carboxamide], the IC50 at WT full length PAICS was 10 to 25 nM. This compound also showed an EC50 in assay [1] of 100 to 250 nM.
In the same order, the values of `CCNCCn1cc(-c2ccc(Cl)c(NC(=O)c3coc(N)n3)c2)cn1` [Example 56, 2-Amino-N-(2-chloro-5-(1-(2-(ethylamino)ethyl)-1H-pyrazol-4-yl)phenyl)oxazole-4-carboxamide] are 10 to 25 nM and 100 to 250 nM.
In the same order, the values of `Nc1nc(C(=O)Nc2cc(-c3nc(CN4CCNCC4)cs3)ccc2Cl)co1` [Example 89, 2-Amino-N-{2-chloro-5-[4-(piperazin-1-ylmethyl)-1,3-thiazol-2-yl]phenyl}-1,3-oxazole-4-carboxamide] are less than 10 nM and less than 100 nM.
`CC1CN(C(=O)Cn2cc(-c3ccc(Cl)c(NC(=O)c4coc(N)n4)c3)cn2)CCN1` (stereo not drawn) [Example 60, 2-Amino-N-(2-chloro-5-{1-[2-(3-methylpiperazin-1-yl)-2-oxoethyl]-1H-pyrazol-4-yl}phenyl)-1,3-oxazole-4-carboxamide]: the 50% inhibitory concentration (IC50) at WT full length PAICS was more than 100 nM. Further, the EC50 in assay [1] lay within 250 to 500 nM.
Taken in the same sequence, the figures for `CN(C)C1CCN(C(=O)Cn2cc(-c3ccc(Cl)c(NC(=O)c4coc(N)n4)c3)cn2)CC1` [Example 59, 2-Amino-N-[2-chloro-5-(1-{2-[4-(dimethylamino)piperidin-1-yl]-2-oxoethyl}-1H-pyrazol-4-yl)phenyl]-1,3-oxazole-4-carboxamide] were 25 to 100 nM and 250 to 500 nM.
In the same order, the values of `CNCC1CCN(Cc2ncc(-c3ccc(Cl)c(NC(=O)c4coc(N)n4)c3)s2)CC1` [Example 94, 2-Amino-N-{2-chloro-5-[2-({4-[(methylamino)methyl]piperidin-1-yl}methyl)-1,3-thiazol-5-yl]phenyl}-1,3-oxazole-4-carboxamide] are 10 to 25 nM and less than 100 nM.
Regarding `Nc1nc(C(=O)Nc2cc(-c3cnn(C4CCCNC4)c3)ccc2Cl)co1` (stereo not drawn) [Example 42, 2-Amino-N-{2-chloro-5-[1-(piperidin-3-yl)-1H-pyrazol-4-yl]phenyl}-1,3-oxazole-4-carboxamide], at WT full length PAICS, the half-maximal inhibitory concentration (IC50) is more than 100 nM. The EC50 in assay [1] was in the range of 100 to 250 nM.
Taken in the same sequence, the figures for `CN1CCN(CCn2cc(-c3ccc(Cl)c(NC(=O)c4coc(N)n4)c3)cn2)CC1` [Example 57, 2-Amino-N-(2-chloro-5-(1-(2-(4-methylpiperazin-1-yl)ethyl)-1H-pyrazol-4-yl)phenyl)oxazole-4-carboxamide] were 25 to 100 nM and 250 to 500 nM.
Taken in the same sequence, the figures for `Nc1nc(C(=O)Nc2cc(-c3cnn(CCCNC4CC4)c3)ccc2Cl)co1` [Example 48, 2-Amino-N-(2-chloro-5-(1-(3-(cyclopropylamino)propyl)-1H-pyrazol-4-yl)phenyl)oxazole-4-carboxamide] were 10 to 25 nM and 100 to 250 nM.
Compound `Nc1nc(C(=O)Nc2cc(-c3cnn(CCN4CCNCC4)c3)ccc2Cl)co1` [Example 81, 2-Amino-N-(2-chloro-5-{1-[2-(piperazin-1-yl)ethyl]-1H-pyrazol-4-yl}phenyl)-1,3-oxazole-4-carboxamide] showed a half-maximal inhibitory concentration (IC50) against WT full length PAICS of 25 to 100 nM. The EC50 in assay [1] lay within 250 to 500 nM.
On to `CNCCn1cc(-c2ccc(Cl)c(NC(=O)c3coc(N)n3)c2)cn1` [Example 50, 2-Amino-N-(2-chloro-5-(1-(2-(methylamino)ethyl)-1H-pyrazol-4-yl)phenyl)oxazole-4-carboxamide], for which, on WT full length PAICS, the IC50 was 10 to 25 nM. In assay [1], the EC50 fell in the range of 100 to 250 nM.
As to `CN1CCC(NC(=O)Cn2cc(-c3ccc(Cl)c(NC(=O)c4coc(N)n4)c3)cn2)CC1` [Example 61, 2-Amino-N-[2-chloro-5-(1-{2-[(1-methylpiperidin-4-yl)amino]-2-oxoethyl}-1H-pyrazol-4-yl)phenyl]-1,3-oxazole-4-carboxamide], the IC50 on WT full length PAICS lay in the range of 25 to 100 nM. For the same compound, the 50% effective concentration (EC50) in assay [1] lay in the range of 250 to 500 nM.
Taken in the same sequence, the figures for `CN(C)CCC(=O)N1CC(Cn2cc(-c3ccc(Cl)c(NC(=O)c4coc(N)n4)c3)cn2)C1` [Example 65, 2-Amino-N-[2-chloro-5-{1-([1-(N,N-dimethyl-beta-alanyl)azetidin-3-yl]methyl}-1H-pyrazol-4-yl)phenyl]-1,3-oxazole-4-carboxamide] were 25 to 100 nM and 250 to 500 nM.
At WT full length PAICS, `Nc1nc(C(=O)Nc2cc(-c3ccc(OC4CCNC4)nc3)ccc2Cl)co1` (stereo not drawn) [Example 68, 2-Amino-N-(2-chloro-5-(6-(pyrrolidin-3-yloxy)pyridin-3-yl)phenyl)oxazole-4-carboxamide] showed an IC50 of 10 to 25 nM. For the same compound, the EC50 in assay [1] lay in the range of 250 to 500 nM.
Taken in the same sequence, the figures for `Nc1nc(C(=O)Nc2cc(-c3ccc(CN[C@H]4CC[C@H](N)CC4)nc3)ccc2Cl)co1` [Example 77, 2-Amino-N-[5-(6-{[(trans-4-aminocyclohexyl)amino]methyl}pyridin-3-yl)-2-chlorophenyl]-1,3-oxazole-4-carboxamide] were 10 to 25 nM and 250 to 500 nM.
In the same order, the values of `CN(C)CCCC(=O)N1CCC(n2cc(-c3ccc(Cl)c(NC(=O)c4coc(N)n4)c3)cn2)CC1` [Example 64, 2-Amino-N-[2-chloro-5-(1-{1-[4-(dimethylamino)butanoyl]piperidin-4-yl}-1H-pyrazol-4-yl)phenyl]-1,3-oxazole-4-carboxamide] are more than 100 nM and 250 to 500 nM.
In the same order, the values of `Nc1nc(C(=O)Nc2cc(-c3ccc(CN4CCNCC4)nc3)ccc2Cl)co1` [Example 76, 2-Amino-N-{2-chloro-5-[6-(piperazin-1-ylmethyl)pyridin-3-yl]phenyl}-1,3-oxazole-4-carboxamide] are 25 to 100 nM and 250 to 500 nM.
Take `Nc1nc(C(=O)Nc2cc(-c3ccn(C4CCNCC4)n3)ccc2Cl)co1` [Example 54, 2-amino-N-{2-chloro-5-[1-(piperidin-4-yl)-1H-pyrazol-3-yl]phenyl}-1,3-oxazole-4-carboxamide]: the concentration for half-maximal inhibition (IC50) against WT full length PAICS lay in the range of 10 to 25 nM. In assay [1], the EC50 lay within 250 to 500 nM.

One may read the IC50 as the concentration that gives 50% inhibition. A lower IC50 goes with inhibition by little substance. In general, EC50 refers to the midpoint of the concentration-response curve.
